According to PMC6220203, “Cellular signaling and gene expression profiles evoked by a bivalent macrocyclic peptide that serves as an artificial MET receptor agonist” (Scientific Reports, 2018):

System: MET receptor / AKT in EHMES-1 cells
Test: Western blot of MET and AKT phosphorylation with or without PHA665752
Type: cell-based, human
Settings: PHA665752 100 nM, stimulated by 1 nM HGF or 120 nM aMD5-PEG11, 10 min
Protocol: EHMES-1 cells were seeded at 9 × 10^5 cells per well in 6-well plates and cultured overnight. To treat the cells with the MET receptor tyrosine kinase inhibitor, EHMES-1 cells were seeded at 3 × 10^5 cells per well in 24-well plates and cultured with or without 100 nM PHA665752 for 12 h. After serum starvation for 4 h, cells were stimulated with HGF or dimeric macrocycle peptide. After washing with ice-cold PBS, cells were lysed in 200 μl 1 × SDS-PAGE Laemmli sample buffer and treated with ultrasonification (Vibra-cell). Cell lysates were analyzed by SDS-PAGE with a 7.5% polyacrylamide gel and electroblotted onto a PVDF membrane. The membrane was treated with primary antibodies (1:1000), followed by HRP-conjugated secondary antibodies (Dako) (1:2000). Chemiluminescence was visualized and quantitated using ImmunoStar LD (Wako). Original blots are provided by supplementary info.

## Cc1[nH]c(/C=C2\C(=O)Nc3ccc(S(=O)(=O)Cc4c(Cl)cccc4Cl)cc32)c(C)c1C(=O)N1CCC[C@@H]1CN1CCCC1 [PHA665752]
  inhibition of MET receptor and AKT activation: almost completely blocked the activation of the MET receptor and AKT to basal levels
